Results: patent US5108930A, “Aminoguanidine assay and applications thereof” (Alteon Inc., priority 1990, dated 1992)
Entries after “also recorded” stand apart in the source; their conditions may differ. Like-named read-outs stand apart in the source and are kept apart here.

Key:
[1] = elimination half-life of aminoguanidine in plasma of patients (HPLC assay) for measurement of kidney function; type: in vivo, human; conditions: 300 mg oral aminoguanidine hydrochloride; for half-life: human, plasma, po, 300 mg, plasma at 10, 14, 18 hours, read-out: AG T1/2 (converted)
Method: A) A single 300 mg dose of aminoguanidine hydrochloride is administered to the patient. Administration may be either by a capsule or tablet taken orally, or by a liquid syrup, elixir or the like.
B) After administration of the aminoguanidine or analog material, periodic collection of plasma samples is then conducted. For example, minimum 3 ml blood samples may be collected, and in the instance where aminoguanidine is administered in dry form as in a pill, the first sample may be taken 10 hours after ingestion, the second sample may be taken 14 hours after ingestion, and the third sample may be taken 18 hours after ingestion. In the instance where a liquid is administered, a similar regimen may be observed.
C) The samples collected at the intervals indicated may then be processed in accordance with the method of the present invention to determine aminoguanidine concentration.
D) Thereafter, the elimination half-life (T1/2) may be determined. Particularly, the data may be interpreted and determined by reference to the relationship wherein the slope of the logarithmic decline of plasma concentration over time is identified as the elimination rate (Kelim). Elimination half-life (T1/2) is related to Kelim by the following equation: [formula]
To a 0.5 mL plasma sample was added 0.5 mL of the working internal standard solution (10 μg/mL N-ethyl aminoguanidine tosylate in 7.5% trichloracetic acid). After vortexing (10 sec.) and centrifugation in a microfuge (Eppendorf, 14,000 rpm, 10 min.), the supernatant was decanted into a clean screw top culture tube containing 0.1 mL of an aqueous (10 mg/mL) solution of reacting agent (6-methyl-2-pyridine-carboxaldehyde). The sample was then capped tightly and reacted in a heating block (95°-100° C.) for 10 minutes. After cooling, i the sample was transferred into an HPLC vial, from which a 200 μL aliquot was injected for HPLC analysis.
A Waters Associates Model 510 pump was utilized with a radial compression column (Waters Novapak CN, 8 mm ×10 cm, 4 μm particle size) and a cyano (Waters Resolve Guard-Pak CN) precolumn. Detection was performed using a variable ultraviolet detector (Waters 484) at 302 nm. The mobile phase consisted of (volume to volume) 15% acetonitrile: 10% methanol: 75% of 0.01 M each of 1heptanesulfonic acid and sodium phosphate monobasic. Flow rate was maintained isocratically at 2.0 mL/min. at ambient temperature. Sequential automatic injections were made via a programmable sampler (Waters WISP 712).
All data acquisitions were performed with a Waters Maxima 820 system. A linear test squares analysis of the ratios of drug peak height to internal standard peak height versus concentrations added to human plasma in standards constituted daily instrumentation standardization. Interpolation from the linear regression line determined concentrations of aminoguanidine in quality control and unknown assayed samples
[…] After administration of this total dosage, plasma samples were collected from each of the patients at intervals of 10 hours, 14 hours and 18 hours after administration. The plasma samples were then taken and subjected to the assay of the present invention, in accordance with the protocol utilized in Example 1.
Accordingly, the samples were first combined with a quantity of a working internal standard solution of N-ethyl aminoguanidine tosylate in 7.5 percent trichloroacetic acid. The resulting samples were vortexed for 10 seconds and centrifuged for a period of 10 minutes at a speed of 14,000 rpm. The supernatants were then decanted into a culture tube containing 0 1 ml of an aqueous solution ([…]) of 6-methyl picolinaldehyde. The samples were then tightly capped and reacted in a heating block for a period of 10 minutes, and after cooling, were transferred into HPLC vials from which aliquots were then injected for HPLC analysis.
A radial compression chromatographic column was utilized with an isocratic flow rate and under paired-ion conditions. […]

histaminase = conditions: cited from earlier work
diamine oxidase = conditions: cited from earlier work
histamine = conditions: human pregnancy (title of cited paper); cited from earlier work
[2] = tested on: glucose-mediated cross-linking of proteins; conditions: cited from earlier work

**Q.** For N=C(N)NN [aminoguanidine], which “relationship between aminoguanidine half-life and kidney function (GFR), in words” value [1] is on record?
**A.** fairly consistent and linear relationship; also recorded: excellent linear correlation; also recorded: inverse relationship

**Q.** And the “correlation coefficient r of aminoguanidine T1/2 with GFR” value ([1]; n=18)?
**A.** 0.875

**Q.** What about the half-life ([1]; patient 1, GFR 12.8) of the same compound?
**A.** 24.6 h

**Q.** And the half-life ([1]; patient 2, GFR 52.4)?
**A.** 14.2 h

**Q.** And the half-life ([1]; patient 3, GFR 116.3)?
**A.** 3.83 h

**Q.** And the half-life ([1]; patient 4, GFR 44.1)?
**A.** 21.8 h

**Q.** And the half-life ([1]; patient 5, GFR 31.1)?
**A.** 19 h

**Q.** And the half-life ([1]; patient 6, GFR 80.5)?
**A.** 6.78 h

**Q.** What about the half-life ([1]; patient 7, GFR 26.7) of the same compound?
**A.** 14.8 h

**Q.** And the half-life ([1]; patient 8, GFR 12.1)?
**A.** 24.9 h

**Q.** What about the half-life ([1]; patient 9, GFR 117.2) of the same compound?
**A.** 4.73 h

**Q.** And the half-life ([1]; patient 10, GFR 148.9)?
**A.** 3.94 h

**Q.** And the half-life ([1]; patient 11, GFR 111.9)?
**A.** 6.82 h

**Q.** What about the half-life ([1]; patient 12, GFR 103.8) of the same compound?
**A.** 6.08 h

**Q.** And the half-life ([1]; patient 13, GFR 41.6)?
**A.** 14.9 h

**Q.** And the half-life ([1]; patient 14, GFR 39.2)?
**A.** 9.54 h

**Q.** What about the half-life ([1]; patient 15, GFR 113.2) of the same compound?
**A.** 4.81 h

**Q.** What about the half-life ([1]; patient 16, GFR 82.2) of the same compound?
**A.** 6.03 h

**Q.** And the half-life ([1]; patient 18, GFR 131.3)?
**A.** 7.05 h

**Q.** And the half-life ([1]; patient 19, GFR 131.1)?
**A.** 6.46 h

**Q.** What about the “inhibitory action on the enzyme histaminase” value (histaminase) of the same compound?
**A.** inhibitory action

**Q.** What about the “inhibition of diamine oxidase” value (diamine oxidase) of the same compound?
**A.** selective inhibitor

**Q.** And the levels of histamine (histamine)?
**A.** increase levels of histamine

**Q.** What about the “inhibition of glucose-mediated cross-linking of proteins” value [2] of the same compound?
**A.** inhibitor of glucose-mediated cross-linking of proteins
